Reference: the supplement of paper PMC10733146

Key:
Assay in all cases: viability relative to DMSO control (fraction); higher = less drug effect (more viable cells)
Settings in all cases: 48 h
[1] = tested on: primary AML patient cells (S091)
Summary of the method: (§1)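 Viability was quantified by CellTiter-Glo luminescence and related to the median of 16 inner DMSO wells. Before that, primary mononuclear tumour cells, fresh or cryopreserved and Ficoll-isolated from blood or bone marrow or prepared from processed lymph node, were plated at 4 × 10^4 cells per well in 384-well plates containing pre-plated compounds at five concentrations, one well each. Plates were incubated in RPMI-1640 with penicillin/streptomycin, L-glutamine and human serum at 37 °C and 5% CO2 for 48 h.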

[2] = tested on: primary AML patient cells (S011)
Summary of the method: as §1

[3] = tested on: primary AML patient cells (S081)
Summary of the method: as §1

[4] = tested on: primary T-PLL patient cells (S008)
Summary of the method: as §1

[5] = tested on: primary AML patient cells (S037)
Summary of the method: as §1

[6] = tested on: primary FL patient cells (S022)
Summary of the method: as §1

[7] = tested on: primary AML patient cells (S055)
Summary of the method: as §1

[8] = tested on: primary ALL patient cells (S048)
Summary of the method: as §1

[9] = tested on: primary AML patient cells (S002)
Summary of the method: as §1

[10] = tested on: primary AML patient cells (S021)
Summary of the method: as §1

[11] = tested on: primary DLBCL patient cells (S049)
Summary of the method: as §1

[12] = tested on: primary T-NHL patient cells (S058)
Summary of the method: as §1

[13] = tested on: primary MCL patient cells (S068)
Summary of the method: as §1

[14] = tested on: primary AML patient cells (S019)
Summary of the method: as §1

[15] = tested on: primary AML patient cells (S089)
Summary of the method: as §1

[16] = tested on: primary AML patient cells (S007)
Summary of the method: as §1

[17] = tested on: primary DLBCL patient cells (S076)
Summary of the method: as §1

[18] = tested on: primary AML patient cells (S027)
Summary of the method: as §1

[19] = tested on: primary AML patient cells (S025)
Summary of the method: as §1

Nc1ccc2ncnc(NCCc3ccc(Oc4ccccc4)cc3)c2c1 [EVP4593]
viability ([1]; 0.008 µM): 0.891
viability ([1]; 0.04 µM): 0.837
viability ([1]; 0.2 µM): 0.869
viability ([1]; 1 µM): 0.624
viability ([1]; 5 µM): 0.532
viability ([2]; 0.008 µM): 0.746
viability ([2]; 0.04 µM): 0.633
viability ([2]; 0.2 µM): 0.617
viability ([2]; 1 µM): 0.467
viability ([2]; 5 µM): 0.459
viability ([3]; 0.008 µM): 0.859
viability ([3]; 0.04 µM): 0.821
viability ([3]; 0.2 µM): 0.799
viability ([3]; 1 µM): 0.784
viability ([3]; 5 µM): 0.78
viability ([4]; 0.008 µM): 0.997
viability ([4]; 0.04 µM): 0.971
viability ([4]; 0.2 µM): 0.894
viability ([4]; 1 µM): 0.861
viability ([4]; 5 µM): 0.868
viability ([5]; 0.008 µM): 0.943
viability ([5]; 0.04 µM): 0.813
viability ([5]; 0.2 µM): 0.859
viability ([5]; 1 µM): 1.08
viability ([5]; 5 µM): 1.07
viability ([6]; 0.008 µM): 0.911
viability ([6]; 0.04 µM): 0.871
viability ([6]; 0.2 µM): 0.805
viability ([6]; 1 µM): 0.816
viability ([6]; 5 µM): 0.825
viability ([7]; 0.008 µM): 0.913
viability ([7]; 0.04 µM): 0.853
viability ([7]; 0.2 µM): 0.791
viability ([7]; 1 µM): 0.828
viability ([7]; 5 µM): 0.828
viability ([8]; 0.008 µM): 0.776
viability ([8]; 0.04 µM): 0.919
viability ([8]; 0.2 µM): 0.88
viability ([8]; 1 µM): 0.869
viability ([8]; 5 µM): 0.676
viability ([9]; 0.008 µM): 0.922
viability ([9]; 0.04 µM): 0.857
viability ([9]; 0.2 µM): 0.753
viability ([9]; 1 µM): 0.668
viability ([9]; 5 µM): 0.726
viability ([10]; 0.008 µM): 0.769
viability ([10]; 0.04 µM): 0.659
viability ([10]; 0.2 µM): 0.572
viability ([10]; 1 µM): 0.437
viability ([10]; 5 µM): 0.439
viability ([11]; 0.008 µM): 0.89
viability ([11]; 0.04 µM): 0.763
viability ([11]; 0.2 µM): 0.37
viability ([11]; 1 µM): 0.257
viability ([11]; 5 µM): 0.197
viability ([12]; 0.008 µM): 1.09
viability ([12]; 0.04 µM): 0.934
viability ([12]; 0.2 µM): 0.784
viability ([12]; 1 µM): 0.809
viability ([12]; 5 µM): 0.715
viability ([13]; 0.008 µM): 0.844
viability ([13]; 0.04 µM): 0.766
viability ([13]; 0.2 µM): 0.741
viability ([13]; 1 µM): 0.683
viability ([13]; 5 µM): 0.676
viability ([14]; 0.008 µM): 0.922
viability ([14]; 0.04 µM): 0.883
viability ([14]; 0.2 µM): 0.84
viability ([14]; 1 µM): 0.82
viability ([14]; 5 µM): 0.764
viability ([15]; 0.008 µM): 0.701
viability ([15]; 0.04 µM): 0.737
viability ([15]; 0.2 µM): 0.629
viability ([15]; 1 µM): 0.44
viability ([15]; 5 µM): 0.215
viability ([16]; 0.008 µM): 0.722
viability ([16]; 0.04 µM): 0.514
viability ([16]; 0.2 µM): 0.379
viability ([16]; 1 µM): 0.257
viability ([16]; 5 µM): 0.217
viability ([17]; 0.008 µM): 0.999
viability ([17]; 0.04 µM): 0.989
viability ([17]; 0.2 µM): 0.741
viability ([17]; 1 µM): 0.657
viability ([17]; 5 µM): 0.551

CCN1CCN(Cc2ccc(Nc3ncc(F)c(-c4cc(F)c5nc(C)n(C(C)C)c5c4)n3)nc2)CC1
viability ([1]; 0.024 µM): 0.77
viability ([1]; 0.12 µM): 0.939
viability ([1]; 0.6 µM): 0.849
viability ([1]; 3 µM): 0.569
viability ([1]; 15 µM): 0.333
viability ([2]; 0.024 µM): 1.74
viability ([2]; 0.12 µM): 1.08
viability ([2]; 0.6 µM): 1.09
viability ([2]; 3 µM): 0.0537
viability ([2]; 15 µM): 0.01
viability ([3]; 0.024 µM): 0.929
viability ([3]; 0.12 µM): 0.868
viability ([3]; 0.6 µM): 0.833
viability ([3]; 3 µM): 0.537
viability ([3]; 15 µM): 0.174
viability ([4]; 0.024 µM): 1.04
viability ([4]; 0.12 µM): 0.981
viability ([4]; 0.6 µM): 1.08
viability ([4]; 3 µM): 0.415
viability ([4]; 15 µM): 0.0352
viability ([5]; 0.024 µM): 0.952
viability ([5]; 0.12 µM): 0.926
viability ([5]; 0.6 µM): 1.03
viability ([5]; 3 µM): 0.71
viability ([5]; 15 µM): 0.255
viability ([6]; 0.024 µM): 1.12
viability ([6]; 0.12 µM): 1.01
viability ([6]; 0.6 µM): 1.06
viability ([6]; 3 µM): 0.616
viability ([6]; 15 µM): 0.00982
viability ([18]; 0.024 µM): 1.05
viability ([18]; 0.12 µM): 1.05
viability ([18]; 0.6 µM): 0.953
viability ([18]; 3 µM): 0.313
viability ([18]; 15 µM): 0.018
viability ([8]; 0.024 µM): 0.546
viability ([8]; 0.12 µM): 0.443
viability ([8]; 0.6 µM): 0.263
viability ([8]; 3 µM): 0.0396
viability ([8]; 15 µM): 0.00487
viability ([9]; 0.024 µM): 0.84
viability ([9]; 0.12 µM): 0.894
viability ([9]; 0.6 µM): 0.884
viability ([9]; 3 µM): 0.363
viability ([9]; 15 µM): 0.139
viability ([19]; 0.024 µM): 1.11
viability ([19]; 0.12 µM): 1.02
viability ([19]; 0.6 µM): 1.1
viability ([19]; 3 µM): 0.372
viability ([19]; 15 µM): 0.0187
viability ([10]; 0.024 µM): 1.01
viability ([10]; 0.12 µM): 0.962
viability ([10]; 0.6 µM): 1.22
viability ([10]; 3 µM): 0.377
viability ([10]; 15 µM): 0.0751
viability ([13]; 0.024 µM): 0.836
viability ([13]; 0.12 µM): 0.934
viability ([13]; 0.6 µM): 1.09
viability ([13]; 3 µM): 0.0754
viability ([13]; 15 µM): 0.0119
viability ([14]; 0.024 µM): 1.18
viability ([14]; 0.12 µM): 0.939
viability ([14]; 0.6 µM): 1.13
viability ([14]; 3 µM): 0.232
viability ([14]; 15 µM): 0.0632
viability ([15]; 0.024 µM): 0.589
viability ([15]; 0.12 µM): 0.962
viability ([15]; 0.6 µM): 0.576
viability ([15]; 3 µM): 0.0472
viability ([15]; 15 µM): 0.0221
viability ([16]; 0.024 µM): 0.759
viability ([16]; 0.12 µM): 0.725
viability ([16]; 0.6 µM): 0.782
viability ([16]; 3 µM): 0.668
viability ([16]; 15 µM): 0.0289
